Measurements taken from PubChem BioAssay (NCI).
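How tested: cells in 96-well plates exposed to compound for 48 hours at five concentrations. GI50 is the concentration that inhibits growth by half. TGI: total growth inhibition.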

What was measured:
Assay in all cases: growth of human tumour cells (NCI), 48 h
MCF7 breast = tested on: MCF7 breast
SR leukemia = tested on: SR leukemia
PC-3 prostate = tested on: PC-3 prostate
U251 CNS = tested on: U251 CNS
SN12C renal = tested on: SN12C renal
OVCAR-3 ovarian = tested on: OVCAR-3 ovarian
DU-145 prostate = tested on: DU-145 prostate
LOX IMVI melanoma = tested on: LOX IMVI melanoma
COLO 205 colon = tested on: COLO 205 colon
MDA-MB-435 = tested on: MDA-MB-435
HCT-15 colon = tested on: HCT-15 colon
MDA-MB-468 breast = tested on: MDA-MB-468 breast
MALME-3M melanoma = tested on: MALME-3M melanoma
HOP-62 NSCLC = tested on: HOP-62 NSCLC
EKVX NSCLC = tested on: EKVX NSCLC
A498 renal = tested on: A498 renal
SK-OV-3 ovarian = tested on: SK-OV-3 ovarian
UACC-257 melanoma = tested on: UACC-257 melanoma
UO-31 renal = tested on: UO-31 renal
HS 578T breast = tested on: HS 578T breast
OVCAR-5 ovarian = tested on: OVCAR-5 ovarian
NCI-H522 lung = tested on: NCI-H522 lung
IGROV1 ovarian = tested on: IGROV1 ovarian
SF-295 CNS = tested on: SF-295 CNS
CAKI-1 renal = tested on: CAKI-1 renal
SF-268 CNS = tested on: SF-268 CNS
TK-10 renal = tested on: TK-10 renal
RPMI-8226 leukemia = tested on: RPMI-8226 leukemia
BT-549 breast = tested on: BT-549 breast
M14 melanoma = tested on: M14 melanoma
MDA-MB-231 breast = tested on: MDA-MB-231 breast
786-0 renal = tested on: 786-0 renal
KM12 colon = tested on: KM12 colon
UACC-62 melanoma = tested on: UACC-62 melanoma
NCI-H460 lung = tested on: NCI-H460 lung
HCC-2998 colon = tested on: HCC-2998 colon
CCRF-CEM leukemia = tested on: CCRF-CEM leukemia
HT29 colon = tested on: HT29 colon
SW-620 colon = tested on: SW-620 colon
NCI-H226 lung = tested on: NCI-H226 lung
SK-MEL-2 melanoma = tested on: SK-MEL-2 melanoma
OVCAR-4 ovarian = tested on: OVCAR-4 ovarian
ACHN renal = tested on: ACHN renal
SNB-19 CNS = tested on: SNB-19 CNS
MOLT-4 leukemia = tested on: MOLT-4 leukemia
T-47D breast = tested on: T-47D breast
K-562 leukemia = tested on: K-562 leukemia
HOP-92 NSCLC = tested on: HOP-92 NSCLC
NCI-H23 lung = tested on: NCI-H23 lung
SNB-75 CNS = tested on: SNB-75 CNS
SF-539 CNS = tested on: SF-539 CNS
SK-MEL-28 melanoma = tested on: SK-MEL-28 melanoma
SK-MEL-5 melanoma = tested on: SK-MEL-5 melanoma
HL-60(TB) leukemia = tested on: HL-60(TB) leukemia
RXF 393 renal = tested on: RXF 393 renal
OVCAR-8 ovarian = tested on: OVCAR-8 ovarian
A549 NSCLC = tested on: A549 NSCLC

Q: What does the source list for O=C1Nc2cc(Cl)ccc2/C1=C/c1ccc(OCc2ccc(Br)cc2F)cc1?
A: GI50 (MCF7 breast): 2.11 µM; TGI (MCF7 breast): 14.2 µM; GI50 (SR leukemia): 2.07 µM; TGI (SR leukemia): 4.45 µM; GI50 (PC-3 prostate): 1.91 µM; TGI (PC-3 prostate): 4.46 µM; GI50 (U251 CNS): 1.92 µM; TGI (U251 CNS): 3.62 µM; GI50 (SN12C renal): 5.31 µM; TGI (SN12C renal): 19.6 µM; GI50 (OVCAR-3 ovarian): 2.49 µM; TGI (OVCAR-3 ovarian): 5.08 µM; GI50 (DU-145 prostate): 3.39 µM; TGI (DU-145 prostate): 10.1 µM; GI50 (LOX IMVI melanoma): 1.73 µM; TGI (LOX IMVI melanoma): 3.61 µM; GI50 (COLO 205 colon): 4.03 µM; TGI (COLO 205 colon): 17 µM; GI50 (MDA-MB-435): 2.87 µM; TGI (MDA-MB-435): 8.54 µM; GI50 (HCT-15 colon): 3.4 µM; TGI (HCT-15 colon): 13 µM; GI50 (MDA-MB-468 breast): 2.24 µM; TGI (MDA-MB-468 breast): 4.65 µM; GI50 (MALME-3M melanoma): 1.82 µM; TGI (MALME-3M melanoma): 3.83 µM; GI50 (HOP-62 NSCLC): 1.9 µM; TGI (HOP-62 NSCLC): 4.21 µM; GI50 (EKVX NSCLC): 3.69 µM; TGI (EKVX NSCLC): 17.1 µM; GI50 (A498 renal): 2.23 µM; TGI (A498 renal): 4.59 µM; GI50 (SK-OV-3 ovarian): 3.81 µM; TGI (SK-OV-3 ovarian): 13.5 µM; GI50 (UACC-257 melanoma): 9.42 µM; TGI (UACC-257 melanoma): 26.3 µM; GI50 (UO-31 renal): 1.55 µM; TGI (UO-31 renal): 4.65 µM; GI50 (HS 578T breast): 2.05 µM; TGI (HS 578T breast): 6.6 µM; GI50 (OVCAR-5 ovarian): 8.24 µM; TGI (OVCAR-5 ovarian): 34.3 µM; GI50 (NCI-H522 lung): 1.99 µM; TGI (NCI-H522 lung): 4.89 µM; GI50 (IGROV1 ovarian): 2.43 µM; TGI (IGROV1 ovarian): 6.3 µM; GI50 (SF-295 CNS): 2.07 µM; TGI (SF-295 CNS): 4.36 µM; GI50 (CAKI-1 renal): 1.7 µM; TGI (CAKI-1 renal): 3.46 µM; GI50 (SF-268 CNS): 2.67 µM; TGI (SF-268 CNS): 6.35 µM; GI50 (TK-10 renal): 2.73 µM; TGI (TK-10 renal): 7.15 µM; GI50 (RPMI-8226 leukemia): 4.41 µM; TGI (RPMI-8226 leukemia): 18.1 µM; GI50 (BT-549 breast): 1.92 µM; TGI (BT-549 breast): 4.26 µM; GI50 (M14 melanoma): 2.91 µM; TGI (M14 melanoma): 9.02 µM; GI50 (MDA-MB-231 breast): 2.33 µM; TGI (MDA-MB-231 breast): 5.92 µM; GI50 (786-0 renal): 1.9 µM; TGI (786-0 renal): 3.5 µM; GI50 (KM12 colon): 3.54 µM; TGI (KM12 colon): 11.5 µM; GI50 (UACC-62 melanoma): 1.82 µM; TGI (UACC-62 melanoma): 3.8 µM; GI50 (NCI-H460 lung): 2.02 µM; TGI (NCI-H460 lung): 3.74 µM; GI50 (HCC-2998 colon): 15.4 µM; TGI (HCC-2998 colon): 37.7 µM; GI50 (CCRF-CEM leukemia): 3.86 µM; TGI (CCRF-CEM leukemia): 14.6 µM; GI50 (HT29 colon): 4.69 µM; TGI (HT29 colon): 19.5 µM; GI50 (SW-620 colon): 2.02 µM; TGI (SW-620 colon): 4.18 µM; GI50 (NCI-H226 lung): 2.07 µM; TGI (NCI-H226 lung): 5.53 µM; GI50 (SK-MEL-2 melanoma): 7.22 µM; TGI (SK-MEL-2 melanoma): 21.7 µM; GI50 (OVCAR-4 ovarian): 1.9 µM; TGI (OVCAR-4 ovarian): 3.98 µM; GI50 (ACHN renal): 1.92 µM; TGI (ACHN renal): 3.83 µM; GI50 (SNB-19 CNS): 2.3 µM; TGI (SNB-19 CNS): 5.72 µM; GI50 (MOLT-4 leukemia): 3.98 µM; TGI (MOLT-4 leukemia): 14.4 µM; GI50 (T-47D breast): 4.19 µM; TGI (T-47D breast): 18.3 µM; GI50 (K-562 leukemia): 4.03 µM; TGI (K-562 leukemia): 17 µM; GI50 (HOP-92 NSCLC): 2.28 µM; TGI (HOP-92 NSCLC): 6.17 µM; GI50 (NCI-H23 lung): 1.79 µM; TGI (NCI-H23 lung): 4.08 µM; GI50 (SNB-75 CNS): 2.19 µM; TGI (SNB-75 CNS): 7 µM; GI50 (SF-539 CNS): 1.92 µM; TGI (SF-539 CNS): 3.59 µM; GI50 (SK-MEL-28 melanoma): 2.18 µM; TGI (SK-MEL-28 melanoma): 4.92 µM; GI50 (SK-MEL-5 melanoma): 3.47 µM; TGI (SK-MEL-5 melanoma): 12.3 µM; GI50 (HL-60(TB) leukemia): 17.7 µM; TGI (HL-60(TB) leukemia): 53.6 µM; GI50 (RXF 393 renal): 2.73 µM; TGI (RXF 393 renal): 9.28 µM; GI50 (OVCAR-8 ovarian): 3.31 µM; TGI (OVCAR-8 ovarian): 10.4 µM; GI50 (A549 NSCLC): 2.08 µM; TGI (A549 NSCLC): 4.35 µM
